Test systems include EKVX NSCLC; ACHN renal; HOP-62 NSCLC; LXFL 529 NSCLC; KM12 colon; M14 melanoma; IGROV1 ovarian; TK-10 renal; KM20L2 colon; MALME-3M melanoma.
Common to all, as to assay: growth of human tumour cells (NCI), 48 h

Structures are written as SMILES. Where “and” joins values, the source holds several entries; their conditions need not be identical. Equal entries are not always repeated.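 Test compounds were applied to cells in 96-well plates for 48 hours at 5 doses. GI50 is the concentration that inhibits growth by half. Definition used: TGI = concentration required for complete inhibition of growth.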

Consider `[Cl-].[O-]/N=C(\c1ccccc1)c1ccccn1.[O-]/N=C(\c1ccccc1)c1ccccn1.[O-]/N=C(\c1ccccc1)c1ccccn1.[Sm+3]`, for which the GI50 in the test with EKVX NSCLC is 29.4 µM; with ACHN renal it was 29.3 µM; in the test on HOP-62 NSCLC, 28 µM; in the test with LXFL 529 NSCLC, 41.4 µM; with KM12 colon, 17.6 µM; in the test on M14 melanoma, 19.6 µM. The GI50 is 27.8 µM with IGROV1 ovarian, 24.5 µM in the test with TK-10 renal, 40.1 µM in the test on KM20L2 colon and 24.6 µM in the test on MALME-3M melanoma. In addition, the TGI was over 100 µM with EKVX NSCLC; over 100 µM with ACHN renal; over 100 µM with HOP-62 NSCLC; over 100 µM in the test on LXFL 529 NSCLC; over 100 µM with KM12 colon; 40.6 µM in the test with M14 melanoma. The TGI with IGROV1 ovarian was 79.6 µM; in the test on TK-10 renal, over 100 µM; in the test with KM20L2 colon, over 100 µM; in the test with MALME-3M melanoma, 88.6 µM.
For `CCOC(=O)C1N(S(=O)(=O)c2ccc(C)cc2)CCC12c1ccccc1N(C(C)=O)C2c1ccc(OC)c(OC)c1` (configuration not stated), the TGI with EKVX NSCLC, in the test with ACHN renal, in the test with HOP-62 NSCLC, in the test with LXFL 529 NSCLC, in the test with KM12 colon and with M14 melanoma was over 100 µM throughout. For the same compound, the TGI in the test with IGROV1 ovarian, in the test with TK-10 renal, with KM20L2 colon and in the test with MALME-3M melanoma was over 100 µM throughout.
Consider `Cc1ccc(SC(CCC(Sc2ccc(C)cc2)Sc2ccc(C)cc2)Sc2ccc(C)cc2)cc1`, for which the TGI in the test with EKVX NSCLC, with ACHN renal, in the test with HOP-62 NSCLC, in the test with KM12 colon, with M14 melanoma and with IGROV1 ovarian was over 100 µM each time. For the same compound, the TGI in the test on TK-10 renal and in the test on KM20L2 colon was over 100 µM throughout.
On to `O=C1c2ccccc2C(Br)(Br)c2ccccc21`, for which the TGI is over 100 µM in the test with EKVX NSCLC; over 31.6 µM in the test on ACHN renal; over 31.6 µM in the test with LXFL 529 NSCLC; over 100 µM in the test on KM12 colon; over 31.6 µM in the test with M14 melanoma; over 31.6 µM with IGROV1 ovarian. Besides, the TGI in the test with TK-10 renal was over 100 µM; in the test on KM20L2 colon, over 100 µM; in the test on MALME-3M melanoma, over 31.6 µM.
For the compound `COC(=O)N(C(=O)OC)C(C(=O)O)C(C)C` (configuration not stated), the TGI with EKVX NSCLC, in the test with ACHN renal, in the test on HOP-62 NSCLC, in the test with LXFL 529 NSCLC, with KM12 colon and with M14 melanoma was over 100 µM throughout. For the same compound, the TGI with TK-10 renal and with KM20L2 colon was over 100 µM in each case.
As for `CCCCCC[N+](C)(C)Cc1ccc(C[N+](C)(C)CCCCCC)cc1`, the TGI with EKVX NSCLC was determined as 27.7 µM; in the test with ACHN renal, 24.8 µM; with HOP-62 NSCLC it was 8.23 µM; in the test on LXFL 529 NSCLC, 15.4 µM; in the test with M14 melanoma, 9.34 µM; in the test on IGROV1 ovarian it was 5.38 µM. Further, the TGI in the test with TK-10 renal was 24.3 µM; in the test on KM20L2 colon it was 34.4 µM; in the test on MALME-3M melanoma it was 97.8 µM.
Turning to `O=c1nc(/C=C/c2ccccc2Cl)cc2n1CCN2CCO`, the TGI in the test with EKVX NSCLC, in the test on ACHN renal, with HOP-62 NSCLC, with LXFL 529 NSCLC, with KM12 colon and with M14 melanoma was over 100 µM throughout. The TGI in the test with IGROV1 ovarian, in the test on TK-10 renal and in the test on MALME-3M melanoma was over 100 µM throughout.
In the case of `COc1ccc(S(=O)(=O)Nc2ccccc2C(=O)O)cc1`, the TGI with EKVX NSCLC, in the test with ACHN renal, with LXFL 529 NSCLC, in the test on KM12 colon, with M14 melanoma and with IGROV1 ovarian was over 100 µM each time. The TGI in the test on TK-10 renal, in the test on KM20L2 colon and with MALME-3M melanoma was over 100 µM each time.
As to `COc1ccc(Nc2nc3ccc(C(F)(F)F)cc3nc2-c2ccccc2)cc1OC`, the TGI with EKVX NSCLC was 80.3 µM; in the test on ACHN renal it was over 100 µM; in the test with HOP-62 NSCLC, over 100 µM; with LXFL 529 NSCLC, over 100 µM; with KM12 colon it was over 100 µM; in the test on M14 melanoma it was over 100 µM. The TGI with IGROV1 ovarian and in the test on MALME-3M melanoma was over 100 µM in each case.
Consider `COCCCNC(=O)C1C(=O)N(CCCOC)C(=O)/C1=N\N` (configuration not stated), for which the TGI in the test on EKVX NSCLC, in the test with ACHN renal, in the test with HOP-62 NSCLC, with LXFL 529 NSCLC, in the test with KM12 colon and in the test on M14 melanoma was over 100 µM each time. Also, the TGI with TK-10 renal, in the test with KM20L2 colon and in the test with MALME-3M melanoma was over 100 µM throughout.
As for `C#Cc1cccc(N2C(=O)CCC2=O)c1`, the TGI in the test on EKVX NSCLC was 34.3 µM; with ACHN renal, 30.6 µM; in the test with LXFL 529 NSCLC, 15.8 µM; with KM12 colon, 19.5 µM; with M14 melanoma it was 11.7 µM; in the test with IGROV1 ovarian, 37.9 µM. The TGI with TK-10 renal was 29.9 µM; with KM20L2 colon, 59 µM; in the test with MALME-3M melanoma, 28.2 µM.
For `C=C1C(O)C2C(=C(CCc3ccccc3)C13CC3)C(=O)C(C)(CO)C2O` (configuration not stated), the GI50 in the test on EKVX NSCLC, with ACHN renal, in the test on HOP-62 NSCLC, in the test with KM12 colon, in the test with M14 melanoma and in the test on IGROV1 ovarian was over 100 µM each time. In addition, the values for the GI50 in the test on TK-10 renal and with MALME-3M melanoma were 57.4 µM and over 100 µM, respectively. The TGI in the test with EKVX NSCLC, in the test with ACHN renal, in the test with HOP-62 NSCLC, in the test on KM12 colon, in the test on M14 melanoma and in the test on IGROV1 ovarian was over 100 µM in each case. The TGI in the test on TK-10 renal and in the test on MALME-3M melanoma was over 100 µM in each case.
For `CCC[CH2][Sn]([CH2]CCC)([CH2]CCC)[O]c1ccc(Cl)cc1Cl`, the GI50 in the test on EKVX NSCLC is 0.0948 µM; in the test with ACHN renal it was 0.155 µM; with HOP-62 NSCLC, 0.146 µM; in the test on KM12 colon, 0.0939 µM; with M14 melanoma, 0.143 µM; in the test with IGROV1 ovarian, 0.083 µM. Also, the GI50 was 0.215 µM with TK-10 renal and 0.0973 µM with MALME-3M melanoma. Also, the TGI was 0.302 µM with EKVX NSCLC; 0.291 µM in the test with ACHN renal; 0.294 µM with HOP-62 NSCLC; 0.244 µM with KM12 colon; 0.284 µM in the test with M14 melanoma; 0.223 µM with IGROV1 ovarian. The TGI was found to be 0.61 µM with TK-10 renal and 0.238 µM with MALME-3M melanoma.
Regarding `Cc1[nH]c2ccccc2c1C(=O)CC1(O)C(=O)Nc2ccccc21` (configuration not stated), the TGI with EKVX NSCLC, with ACHN renal, in the test on HOP-62 NSCLC, in the test on LXFL 529 NSCLC, in the test with KM12 colon and in the test on M14 melanoma was over 100 µM throughout. In addition, the TGI with IGROV1 ovarian, in the test with TK-10 renal and with KM20L2 colon was over 100 µM in each case.
As for `CC(=O)OCC1OC(n2c(-c3ccc(Cl)cc3)ccc(C#N)c2=S)C(OC(C)=O)C(OC(C)=O)C1OC(C)=O` (configuration not stated), the TGI in the test with EKVX NSCLC is > 82.9 µM and 80.1 µM; in the test on ACHN renal, over 100 µM; with HOP-62 NSCLC it was 26.1 µM and > 100 µM; with KM12 colon, over 100 µM; with M14 melanoma it was over 100 µM; in the test on IGROV1 ovarian, over 100 µM. For the same compound, the TGI in the test on TK-10 renal was 64.1 µM and > 100 µM; in the test on MALME-3M melanoma, over 100 µM. For the same compound, the GI50 in the test with IGROV1 ovarian was 44.3 µM and > 100 µM; with TK-10 renal, 29.4 µM and 62.3 µM.
With `O=S(=O)(Nc1ccccc1Cl)c1ccc(-c2cnc(C3CC3)o2)cc1`, the GI50 in the test with EKVX NSCLC was 4.35 µM; with ACHN renal it was 0.744 µM; in the test with HOP-62 NSCLC, 0.501 µM; in the test on KM12 colon, 0.393 µM; in the test with M14 melanoma, 0.279 µM; in the test with IGROV1 ovarian, 0.68 µM. In addition, the results for the GI50 with TK-10 renal and with MALME-3M melanoma were 11.8 µM and 0.472 µM, respectively. In addition, the TGI in the test with EKVX NSCLC was over 89.1 µM; in the test with ACHN renal, over 100 µM; in the test on HOP-62 NSCLC it was over 100 µM; with KM12 colon, 32.4 µM; in the test on M14 melanoma it was over 100 µM; in the test with IGROV1 ovarian, over 100 µM. For the same compound, the TGI with TK-10 renal was over 100 µM; in the test on MALME-3M melanoma, 44.3 µM.
Turning to `c1cc(N(CCn2cccn2)CCn2cccn2)cc(N(CCn2cccn2)CCn2cccn2)c1`, the TGI in the test on EKVX NSCLC, in the test on ACHN renal, in the test on HOP-62 NSCLC, in the test on LXFL 529 NSCLC, in the test on KM12 colon and in the test with M14 melanoma was over 100 µM throughout. Moreover, the TGI in the test on TK-10 renal and with KM20L2 colon was over 100 µM in each case.
As to `C=C(COC(C)=O)CC(OC(C)=O)c1ccccc1` (configuration not stated), the TGI with EKVX NSCLC, with ACHN renal, in the test on HOP-62 NSCLC, in the test with LXFL 529 NSCLC, in the test with KM12 colon and with M14 melanoma was over 100 µM in each case. Further, the TGI with IGROV1 ovarian, with TK-10 renal and in the test with KM20L2 colon was over 100 µM in each case.

The values above are taken from PubChem BioAssay (NCI).
